In data set [1] the test system is pancreatic organoids. The experiment in a line: intracellular Cl- level (MQAE) in 3D pancreatic organoids. The following applies: 100 µM. The format is cell-based. Here is the method: To assess the biological activity of CPPs changes of intracellular Cl^— level was measured by loading HEK-293 cells with 5 µM N-(Ethoxycarbonylmethyl)-6-Methoxyquinolinium Bromide (MQAE; ThermoFischer; Catalog number: E3101) for 30 min in the presence of 0.05% Pluronic F-127. Cells were bathed with Cl^— free external solution and treated with different concentrations of CPPs at 37° C. at the perfusion rate of 2-3 ml/min. Region of interests (ROIs) were determined by the xcellence softver (Olympus) and changes of Cl^— were determined by exciting the cells with an MT20 light source equipped with a 340/11 nm excitation filter. Excitation and emission wavelengths were separated by a 400 nm beam splitter and the emitted light was captured by a Hamamatsu ORCA- ER CCD camera. One measurement per second was obtained. During further analysis the fluorescence signals were normalized to the initial fluorescence intensity (F1/F0) and expressed as normalized MQAE fluorescence (FIG. 2). […] N: 4-5 independent experiments/each tested condition.
To test the Cl^— transporting capability of CPPs in primary 3D cells, organoids were loaded with MQAE as above described and bathed in standard HEPES buffered solution (FIG. 4.). […] N: 4-5 independent experiments/each tested condition.

Data set [2] is described as follows: apoptosis/necrosis detection kit, effect on cell fate. The format is cell-based. As to conditions: human; HEK-293 cells, 100 µM, 30 min; read-out: viable cells after the incubation. As for the experimental part:
(§1) To investigate the effect of compounds according to the invention on cell fate, an apoptosis/necrosis detection kit was used according to the manufacturer’s instruction (Abcam Cat. No.: ab176750). Briefly, HEK-293 cells were incubated with various concentrations of CPPs for 30 min at 37° C. Cells were then washed 3 times and were incubated in 200 µL of Assay Buffer and loaded with CytoCalcein 450, Nuclear Green and Apopxin Deep Red at room temperature for 30-60 min. Following this, cells were washed and imaged. Images were captured using a Zeiss LSM880 confocal microscope with different channels and wavelengths according to each dye: CytoCalcein 450 (Ex/Em = 405/450 nm), Nuclear Green (Ex/Em = 490/520 nm) and Apopxin Deep Red (Ex/Em = 630/660 nm). For each condition, five images were captured and the total number of cells were counted by two independent investigators. Results are visualized in % of total cell number (live/apoptotic/necrotic) (FIG. 1). […] However, the majority of cells survived the treatment.

For data set [3], the system named is HEK-293 cells. Described as above. The format is cell-based. As to conditions: for apoptotic cell death: 30 min; for necrotic cell death: 30 min incubation at 37° C.; for toxicity: even in 100 µM. As for the experimental part: as §1
Data set [4] deals with CFTR knockout mice. The experiment in a line: severity of lung fibrosis in Cftr knockout mice, nebulized treatment. The format is in vivo, mouse. The source says:
To assess the effect of in vivo administrated Formula (II) on lung histology parameters, this Example use Cftr^tm1UncTg(FABPCFTR)1Jaw/J mice (Jackson Laboratory, Stock No: 002364). FABP-hCFTR-CFTR bitransgenic mice harbor the FABP-hCFTR transgene [rat fatty acid binding protein 2, intestinal promoter directing expression of a human cystic fibrosis transmembrane conductance regulator (ATP-binding cassette sub-family C, member 7) gene] and a targeted knock-out mutation of the cystic fibrosis transmembrane conductance regulator homolog gene (Cftr). The mice used in this study were 8-12 weeks old and weighted 20-25 grams in the case of wild type (WT) animals and 15-17 grams in the case of CFTR knockout animals, the gender ratio was 1:1 for all groups. Experiments were carried out with adherence to the NIH guidelines and the EU directive 2010/63/EU for the protection of animals used for scientific purposes. The study was authorized by the National Scientific Ethical Committee on Animal Experimentation under license number XXI./1540/2020. Formula (II) was dissolved in physiological saline in a concentration of 10 µM. Treated mice received 400 µL Formula (II) dissolved in physiological saline solution in 5 minutes in a nebulizer in continuous oxygen flow (2L/min). Control animals received physiological saline as vehicle. The mice were grouped into 4 treatment groups as follows: wild type control (Group 1), CFTR knockout control (Group 2), wild type treated (Group 3), CFTR knockout treated (Group 4). Treatment was performed daily for 4 weeks. At the end of the experiments, mice received terminal anesthesia and the lungs were removed. Lungs were fixed for histology and trichrome staining was performed to assess lung parenchyma density and lung fibrosis. Sections were digitalized and fibrosis was scored as follows. 1388×1038 resolution pictures were taken with 10x and 40x magnification objectives with Zeiss ICc3 camera. […] Positive pixels were counted as fibrosis, negative pixels were counted as tissue. […]

Structures are written as SMILES.

Take `O=C(O)c1ccc(/C=C2\SC(=S)N(c3cccc(C(F)(F)F)c3)C2=O)cc1` [CFTRinh172]: the “effect on the fluorescent increase after removal of extracellular Cl- (CFTR-mediated Cl- efflux)” value in data set [1] was “almost completely abolished the fluorescent increase”.

`CC[C@H](C)[C@H](NC(=O)[C@H](CCCCN)NC(=O)[C@@H](NC(=O)[C@H](CCC(N)=O)NC(=O)[C@H](CCCNC(=N)N)NC(=O)c1ccc(N=C=S)cc1)[C@@H](C)CC)C(=O)N[C@@H](Cc1c[nH]c2ccccc12)C(=O)N[C@@H](Cc1ccccc1)C(=O)N[C@@H](CCC(N)=O)C(=O)N[C@@H](CC(N)=O)C(=O)N[C@@H](CCCNC(=N)N)C(=O)N[C@@H](CCCNC(=N)N)C(=O)N[C@@H](CCSC)C(=O)N[C@@H](CCCCN)C(=O)N[C@@H](Cc1c[nH]c2ccccc12)C(=O)N[C@@H](CCCCN)C(=O)N[C@@H](CCCCN)C(N)=O` [Formula (III)]: the viability at 0.5 h, 100 µM in data set [2] was determined as 97.3%. Besides, the apoptotic cell death entry in data set [3] (100 µM) is on record as “limited rate of apoptotic cell death”. In data set [3], the necrotic cell death entry is “no necrotic cell death was observed” and the toxicity entry is “negligible toxicity”.

As to `CC[C@H](C)[C@H](NC(=O)[C@H](CCCCN)NC(=O)[C@@H](NC(=O)[C@H](CCC(N)=O)NC(=O)[C@H](CCCNC(=N)N)NC(=O)CCCCCNC(=S)Nc1cc(C(F)(F)F)cc(C(F)(F)F)c1)[C@@H](C)CC)C(=O)N[C@@H](Cc1c[nH]c2ccccc12)C(=O)N[C@@H](Cc1ccccc1)C(=O)N[C@@H](CCC(N)=O)C(=O)N[C@@H](CC(N)=O)C(=O)N[C@@H](CCCNC(=N)N)C(=O)N[C@@H](CCCNC(=N)N)C(=O)N[C@@H](CCSC)C(=O)N[C@@H](CCCCN)C(=O)N[C@@H](Cc1c[nH]c2ccccc12)C(=O)N[C@@H](CCCCN)C(=O)N[C@@H](CCCCN)C(N)=O` [Formula (II)], in data set [2], the viability at 0.5 h, 100 µM was found to be 97.3%. Further, in data set [3] (10 µM), the apoptotic cell death result is reported as “limited rate of apoptotic cell death”. In data set [3] (100 µM), the apoptotic cell death result was “limited rate of apoptotic cell death”. Besides, in data set [3], the necrotic cell death entry is “no necrotic cell death was observed” and the toxicity entry is “negligible toxicity”. Besides, the body weight result in data set [4] (all groups, 4 weeks of daily treatment) is “maintained their initial weights”. Moreover, the “adverse events during the treatment” value in data set [4] (mice, nebulized daily for 4 weeks) is recorded as “no adverse events were observed”. In data set [4] (treated animals, nebulized daily for 4 weeks), the “clinical signs of toxicity” value is given as “No clinical signs of toxicity were observed”.

These data come from US20230173084A1, “PEPTIDE-BASED SYNTHETIC CHLORIDE ION TRANSPORTERS” (Tavanta Therapeutics Hungary Incorporated, priority 2019, published 2023).
